According to patent US7910091B2, “System for trapping flying insects with attractant lures” (Woodstream Corporation, priority 2002, dated 2011):

How the values were obtained:
mosquitoes [1] = assay: Hawaii field test of lactic acid lures in Mosquito Magnet traps, total mosquito catch; assay type: in vivo, Culex quinquefasciatus Aedes albopictus, et al.; settings: w/CO2, average caught in 48 hours
Protocol: (§1) […] Sample vials containing lactic acid impregnated frits were replaced every 2 days to ensure measurement uniformity. Measured release rates were approximately 4.0 mg/hr to 20 mg/hr. Controls were run with a Professional trap device lacking a lactic acid lure. The number of mosquitoes retained in the catch bag of the insect trapping devices was quantitated for test sample and control runs.
(§2) The comparison between lactic acid/CO2 and CO2 only used as lures in Mosquito Magnet® Professional (PRO) and Liberty traps are shown in Table 8.

A. albopictus [2] = assay: Hawaii field test of lactic acid lures in Mosquito Magnet traps, A. albopictus catch; assay type: in vivo, Aedes albopictus; settings: w/CO2, average caught in 48 hours
Protocol: as §1, §2

flying insects = assay: Additional trap trials: lactic acid lures vs 1-octen-3-ol, Liberty trap with and without lure (FIG. 5); assay type: in vivo; settings: for Insect capture counts (FIG. 5), in words: compared with CO2 only control / with lactic acid lures
Description: Also surprising were the results of a trial running a Mosquito Magnet® Liberty trap (American Biophysics Corporation, East Greenwich, R.I., USA) with and without lactic acid lures. […] The addition of a lactic acid lure increased the capture count to about 4,700 flying insects, a surprising enhancement over the effectiveness of the device using CO2 alone. The trial test data are graphically depicted in FIG. 5.

mosquitoes [3] = assay: China test, Mosquito Magnet Liberty traps, total catch of mosquitoes; assay type: in vivo; settings: Wuhu
Description: (§3) Mosquito types found in China include Culex pipiens pallens (majority), A. albopictus, Anopheles sinensis (minority), and […] subalbatus (minority). […] The daily mosquito catch depended mainly on the seasonal distribution of mosquitoes. […] Mosquito Magnet® Liberty traps were used in this example.

A. Albopictus [4] = assay: China test, Mosquito Magnet Liberty traps, catch of A. albopictus; assay type: in vivo; settings: with CO2, Liberty trap, July 2002, Wuhu, catching in 12 hours
Description: as §3

[5] = cited from earlier work
Culex pipiens pallens = assay: China indoor test of Lurex; assay type: in vivo; settings: CO2 without Lurex, Hefei basement, July 2002, catching in 24 hours
Description: as §3

[6] = Laboratory release rate test of lactic acid from impregnated frit cartridges in exhaust nozzle; assay type: physicochemical
Description: Packaging of the sample L-(+)-lactic acid solution was selected with the goal of maximizing efficient dispersal of the lactic acid in the CO2 exhaust plume of the insect trapping device. […] Each frit was impregnated with was 3.5 g to 4.5 g of liquid lactic acid. Release rate testing was initially performed under laboratory conditions to assess the dispersal characteristics of L-(+)-lactic acid from impregnated frit cartridges. The sample vial with its cap removed was placed in a “basket-style” housing having numerous apertures/openings to permit release of lactic acid vapors from the impregnated frit. The housing of the supplemental insect attractant element was inserted into the exhaust nozzle of an insect trapping device. Lactic acid release was measured at two temperatures for comparison purposes. Exhaust plume temperature was set at 87° F. and then 97°°F., accordingly. […] At a constant temperature, here 87°°F., the release rate of lactic acid decreased with time. […] The useful life of a frit cartridge impregnated with liquid L-(+)-lactic acid may vary depending upon the amount of attractant initially loaded into the cartridge, and the environmental conditions to which the cartridge is subjected. The ultimate use- or release-time of a given cartridge can be tailored to meet the release rate needs of a particular environmental condition. […] Longer periods of release are anticipated for polymeric formulations of attractant compositions.

[7] = Acute toxicity LD50 oral rat; assay type: in vivo
Description: A particularly beneficial aspect of using biochemical lures to trap mosquitoes is the large margin of safety associated therewith, particularly when compared with traditional chemical attractants.

[8] = @ 25° C.; cited from earlier work
[9] = cited from earlier work; remark: listed apart in the source
[10] = PRO trap, February to March 2002
[11] = PRO trap, January 2002, listed as Liquid lactic acid
[12] = Liberty trap, February to March 2002
[13] = PRO trap, January 2002, higher release rate

In the case of `C=CC(O)CCCCC` (stereo not shown) [1-octen-3-ol, reference compound], the “Total catch of mosquitoes” value (mosquitoes [1]; [10]) is reported as 92, the “Catch of A. Albopictus” value (A. albopictus [2]; [10]) is reported as 13 and the “Insect capture counts (FIG. 5), in words” value (flying insects) is reported as “quite inefficient”. For the same compound, the Flying insects trapped (flying insects; one trial, over a two-day period, CO2 plume generating devices) was “less than 100”, the “Sensitivity of mosquitoes in China to the chemical compared to CO2, in words” value (mosquitoes [3]; Hefei, Shanghai, Liberty traps) was “do not seem significantly sensitive” and the “Total catch of mosquitoes” value (mosquitoes [3]; with CO2, Liberty trap, July 2002, China, catching in 12 hours) was 196. The “Catch of A. Albopictus” value (A. Albopictus [4]) was 14 and the LD50/oral/rat [5] was 340 mg/kg.

For `O=C=O` [CO2, carbon dioxide], the “Total catch of mosquitoes (Culex pipiens pallens)” value (Culex pipiens pallens) was 605.

Work on `CC(O)C(=O)O` (stereo not drawn) [FCC 88, L(+)-lactic acid, 2-hydroxy-propionic acid] yielded a Release rate ([6]; 87° F., time released 0-48 hrs, impregnated frit) of 4.0 to 20 mg/h, a Release rate ([6]; 87° F., time released 3-8 days, impregnated frit) of 2.0 to 3.5 mg/h and a Release rate ([6]; 97-100° F., 5-9th day, same sample tested before at 87° F.) of 5.0 to 7.1 mg/h. The “Estimated time of use of cartridge” value ([6]; cartridge of 3.5 g liquid L-(+)-lactic acid, average release rate 5 mg/hr to 10 mg/hr) was 2 to 4 weeks, the “Total catch of mosquitoes” value (mosquitoes [1]; [11]) was 313.5 and the “Catch of A. Albopictus” value (A. albopictus [2]; [11]) was 26. The “Capture count of flying insects” value (flying insects; Liberty trap with CO2 plus lure, two-day period) was “about 4,700”, the “Insect capture counts (FIG. 5), in words” value (flying insects) was “substantially improve insect capture counts” and the “Times less toxic than 1-octen-3-ol” value [7] was “about 11 times”. For the same compound, the pH [8] was <2 @ 25 °C and the LD50/dermal/rabbit [9] was 2000 mg/kg.

For `CC(O)C(=O)O` (stereo not shown) [Solid lactic acid], the “Total catch of mosquitoes” value (mosquitoes [1]; [12]) was 2537, the “Total catch of mosquitoes” value (mosquitoes [1]; [10]) was 243 and the “Total catch of mosquitoes” value (mosquitoes [1]; PRO trap, January 2002) was 136. The “Total catch of mosquitoes” value (mosquitoes [1]; [13]) was 384, the “Catch of A. Albopictus” value (A. albopictus [2]; [12]) was 12.7 and the “Catch of A. Albopictus” value (A. albopictus [2]; [10]) was 52. For the same compound, the “Catch of A. Albopictus” value (A. albopictus [2]; PRO trap, January 2002) was 30 and the “Catch of A. Albopictus” value (A. albopictus [2]; [13]) was 116.
